The subject of data set [1] is KG-1 cells. The data set can be described thus: WST-1 cell cytotoxicity assay in KG-1 cells. It is filed as cell-based. As to conditions: 10 µM, 48 h. The procedure:
(§1) Figure 2 In vitro screening of leading compounds. (A) Jurkat cells and (B) HEK293 cells were treated with six leading compounds to test cytotoxicity. Cells were seeded into 96-well plates at a density of 7 × 10^3/well and incubated overnight. The cells were then treated for 48 h with different concentrations (0, 10, 20, 40, and 80 µM) of the six CH compounds. At 48 h, cell cytotoxicity WST-1 assays were performed. The x-axis indicates treatment concentrations, while the y-axis indicates the percentage of cell viability (each absolute absorbance value [abs. 450 nm–630 nm] was normalized with the controls). (C) The capacity of the CH compounds to inhibit the PD-1/PD-L1 interaction was tested using the bioluminescent cell-based assay. Effector cells (growth-arrested reporter Jurkat cells) were preincubated with anti-PD-1 neutralizing antibody (Cat No. 71120), DMSO, or each of the CH compounds. The activity of luciferase was determined as an indicator of cell activation. The graphs present mean ± SD (standard deviation) values from at least three independent experiments. (D) After overnight incubation, KG-1 cells were treated for 48 h with increasing concentrations of the CH compounds (0, 10, 20, 40, or 80 µM). (E) KG-1 cells were incubated with CH compounds prior to sPD-L1-Atto staining. Flow cytometry determined binding of the Ni–NTA-labeled sPD-L1 (PD-L1-Atto) complex to KG-1 cells expressing PD-1. Cell staining (Atto-subset) was blocked in the presence of the CH compounds. The experimental groups are indicated as (a) KG-1/PBS, (b) KG-1/Atto dye, (c) KG-1/sPD-L1/Atto dye, (d) KG-1/sPD-L1/Atto dye/CH-1, (e) KG-1/sPD-L1/Atto dye/CH-2, (f) KG-1/sPD-L1/Atto dye/CH-3, (g) KG-1/sPD-L1/Atto dye/CH-4, (h) KG-1/sPD-L1/Atto dye/CH-5, (i) KG-1/sPD-L1/Atto dye/CH6. (F) The cell staining data from (E) are normalized and quantified as relative MFI values. (G) At 48 h, PD-1 protein (20 µg/well) expression was determined by Western blotting. The bar graphs present the mean ± SD (standard deviation) values from three independent experiments. *p < 0.05, **p < 0.01, ***p < 0.001. TEXT PRINTED IN THE PICTURE: (E) d.: 33.1 % | (E) e.: 38.1 % | (E) f.: 52.9 % | (E) g.: 4.01 % | (E) h.: 38.35 % | (E) i.: 49.35 % DOUBTS OF THE COPYIST ABOUT THIS PICTURE: Panel E: the picture labels the histograms only with the sub-panel letters a.-i.; it prints no compound name or measure beside the percentages, so the letters are used as labels. / Panel E: sub-panels a. (3.52 %), b. (4.59 %) and c. (53.9 %) were left out because they appear to be controls without a test compound. / Panel E, small print: d. 33.1 % (3 or 8), e. 38.1 % (8 or 3), f. 52.9 % (9 or 8), h. 38.35 % (3, 5 and 8 uncertain) and i. 49.35 % (9, 3 and 5 uncertain) are best readings.
Using the WST-1 assay, CH compound cytotoxicities were quantified at different concentrations in KG-1 cells (Fig. 2D). […] The data indicated an appropriate concentration for testing inhibition of the PD-1/sPD-L1 interaction by flow cytometry. To clarify the inhibitory qualities of CH compounds in sPD-L1/PD-1 interactions, His-tagged sPD-L1 recombinant protein was labeled with Ni–NTA-conjugated fluorescent dye (Atto) and flow cytometry analysis was performed (Fig. 2E). […] When KG-1 cells were treated with increasing concentrations of CH-4, PD-1 expression was unchanged (Fig. 2G).
The WST-1 assay assessed cell cytotoxicity. Briefly, cells were seeded in 96-well plates at a density of […] (100 μL/well) with 10% FBS in the medium and incubated for 48 h, before undergoing a further 1 h of incubation at 37 °C with 10 μL of WST-1 solution added to each well. Cell viability was quantified by colormetric detection using an ELISA plate reader (Beckman Coulter PARADIGM Detection Platform; Beckman Coulter, IL, USA) at absorbance values of 450 nm and 690 nm to generate an optical density proportional to the relative abundance of live cells in the wells.

Data set [2] deals with HEK293 cells. Put plainly: WST-1 cell cytotoxicity assay in HEK293 cells. It is filed as cell-based. The following applies: WST-1, 48 h. How it is done: (§2) The WST-1 cytotoxicity assay evaluated cytotoxicity in effector cells (Jurkat cells) (Fig. 2A) and target cells (HEK293 cells) (Fig. 2B). The OD value that resulted from WST-1 reagent dye formation strongly correlated with the number of metabolically live cells. To further characterize cytotoxicity tolerance, CC50 (cytotoxic concentration 50%) values were calculated and are shown in Table 1. […] Doses of compounds in the screening assay were based on the CC50 values of each cell line. Thus, screening concentrations of CH-1, -2, -3, -4 and -6 were 0, 10, 20 and 40 µM, respectively, while the concentrations for CH-5 were 0, 0.1, 1 and 10 µM, respectively. To ensure reliable screening, anti-PD-1 neutralizing antibody (Cat No. 71120) was used as a positive control for inhibiting the interaction of PD-1/PD-L1, while HEK293 cells transfected with control plasmid served as the negative control. These groups were treated with increasing concentrations of anti-PD-1 neutralizing antibody (0, 0.1, 1 and 10 µg/mL) and luminescence intensity was determined after treatments.
as §1
(§3) Figure 3 In vitro inhibition by the CH-4 analog of the PD-1/PD-L1 interaction. […]
In general terms: Formazan colour is commonly taken as a measure of viable cells.

Data set [3] relates to Jurkat cells. Put plainly: WST-1 cell cytotoxicity assay in Jurkat cells. It is filed as cell-based. As to conditions: WST-1, 48 h. How it is done:
as §2, §1, §3

Data set [4] has as its target T1, PD-1/sPD-L1 interaction (Homo sapiens, UniProt Q15116).
T1 construct: endogenous in cells; host or cells: KG-1 cells (ATCC)
The data set can be described thus: Flow cytometry of sPD-L1-Atto binding to KG-1 cells expressing PD-1. It is filed as cell-based. As to conditions: Ni-NTA-labeled sPD-L1. The procedure:
(§4) Figure 2 In vitro screening of leading compounds. (A) Jurkat cells and (B) HEK293 cells were treated with six leading compounds to test cytotoxicity. Cells were seeded into 96-well plates at a density of 7 × 10^3/well and incubated overnight. The cells were then treated for 48 h with different concentrations (0, 10, 20, 40, and 80 µM) of the six CH compounds. At 48 h, cell cytotoxicity WST-1 assays were performed. The x-axis indicates treatment concentrations, while the y-axis indicates the percentage of cell viability (each absolute absorbance value [abs. 450 nm–630 nm] was normalized with the controls). (C) The capacity of the CH compounds to inhibit the PD-1/PD-L1 interaction was tested using the bioluminescent cell-based assay. […] The activity of luciferase was determined as an indicator of cell activation. […] Flow cytometry determined binding of the Ni–NTA-labeled sPD-L1 (PD-L1-Atto) complex to KG-1 cells expressing PD-1. […] (F) The cell staining data from (E) are normalized and quantified as relative MFI values. (G) At 48 h, PD-1 protein (20 µg/well) expression was determined by Western blotting. […] 49.35 % (9, 3 and 5 uncertain) are best readings.
Using the WST-1 assay, CH compound cytotoxicities were quantified at different concentrations in KG-1 cells (Fig. 2D). […]
(In general: A flow cytometer gives signals particle by particle.)

Data set [5] is described as follows: WST-1 cell cytotoxicity assay in HEK293 cells. It is filed as cell-based. As to conditions: human, HEK293 cells, WST-1, 48 h. The procedure: as §2, §1, §3
Data set [6] has as its target T2, PD-1/PD-L1 interaction (Homo sapiens, UniProt Q15116).
T2 construct: expressed in transfected cells
Put plainly: Cell-based PD-1/PD-L1 checkpoint assay (bioluminescent NFAT-luciferase, Jurkat effector cells / PD-L1/TCR HEK293 target cells). As to conditions: CH compounds 0, 10, 20, 40 µM; CH-4 effect at 10 µM. An excerpt:
Protein docking analysis identified six potential SMIs targeting PD-1: CH-1, CH-2, CH-3, CH-4, CH-5, and CH-6. To evaluate their capacity to inhibit the PD-1/PD-L1 interaction, we used a cell-based PD-1/PD-L1 inhibitor screening approach consisting of a bioluminescent cell-based assay containing two main components; genetically manipulated effector cells (growth-arrested reporter Jurkat cells) and engineered PD-L1/TCR-overexpressed HEK293 cells (target cells). In this assay, PD-1-expressed effector cells were genetically manipulated with the nuclear factor of activated T-cells (NFAT)-associated luciferase reporter gene. We used HEK293 cells for transient overexpression of PD-L1 and an engineered TCR activator as target cells. When the two cells were co-cultivated, the PD-1/PD-L1 interaction prevented TCR activation and suppressed NFAT-induced luciferase activity.
The WST-1 cytotoxicity assay evaluated cytotoxicity in effector cells (Jurkat cells) (Fig. 2A) and target cells (HEK293 cells) (Fig. 2B). The OD value that resulted from WST-1 reagent dye formation strongly correlated with the number of metabolically live cells. […] These groups were treated with increasing concentrations of anti-PD-1 neutralizing antibody (0, 0.1, 1 and 10 µg/mL) and luminescence intensity was determined after treatments. […]

Data set [7] deals with PD-1 protein. The data set can be described thus: Western blotting of PD-1 protein expression in KG-1 cells. It is filed as cell-based. The following applies: increasing concentrations, 48 h. The procedure:
as §4, with “controls).” for “controls). (C) The capacity of the CH compounds to inhibit the PD-1/PD-L1 interaction was tested using the bioluminescent cell-based assay.”
Figure 3 In vitro inhibition by the CH-4 analog of the PD-1/PD-L1 interaction. […] The x-axis indicates treatment concentrations, while the y-axis indicates the percentage of cell viability (each absolute absorbance value [abs. 450 nm–630 nm] was normalized with the controls). […]

Data set [8] is described as follows: WST-1 cell cytotoxicity assay in Jurkat cells. The following applies: human, Jurkat cells, WST-1, 48 h. It is filed as cell-based. The procedure: as §2, §1, §3
The mark [9] stands for this setting: mean ± SD, Table 1, read-out: CC50 293 cells.
Setting [10] is: read-out: CC50 HEK293 cells (tolerance).
Where [11] appears, read: mean ± SD, Table 1, read-out: CC50 Jurkat cells.
[12] abbreviates: read-out: CC50 Jurkat cells (tolerance).

Entries after “also recorded” stand apart in the source; their conditions may differ. Where two headings read alike, the source gives them in different places.

One may read the CC50 as the concentration at which the toxic effect on the cells reaches its halfway point.

T1 sequence (Q15116 25-288): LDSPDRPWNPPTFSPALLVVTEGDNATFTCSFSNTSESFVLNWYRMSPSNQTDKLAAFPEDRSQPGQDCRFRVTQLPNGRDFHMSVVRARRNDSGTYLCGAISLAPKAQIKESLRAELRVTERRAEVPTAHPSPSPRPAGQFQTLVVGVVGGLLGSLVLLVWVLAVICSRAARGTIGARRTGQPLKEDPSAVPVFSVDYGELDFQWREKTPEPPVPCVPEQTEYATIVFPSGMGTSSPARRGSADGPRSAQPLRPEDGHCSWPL
T2 sequence (Q15116 25-288): as above

Take `Cc1ccccc1NC(=O)C(=O)CC(=O)c1sc(Nc2ccccc2[N+](=O)[O-])nc1C` [CH-1]: the “cytotoxicity to KG-1 cells” value in data set [1] is reported as “low cytotoxicity”. In addition, the CC50 in data set [2] (setting [9]) was 46.9 ± 10.2 µM; in data set [2] (setting [10]), over 20 µM; in data set [3] (setting [11]), 133 ± 5.1 µM; in data set [3] (setting [12]), over 20 µM.

For `COc1ccc(N=Nc2ccc3oc(=O)c(C(=O)Nc4ccc(OC)cc4)cc3c2)cc1` [CH-4], in data set [4], the “inhibition of sPD-L1 binding to KG-1 cells (shift in staining/fluorescence intensity)” value is listed as “slight, yet significant, shift in staining intensity; also recorded: significantly decreased the shift in fluorescence intensity”. In addition, the “cytotoxicity to KG-1 cells” value in data set [1] is “low cytotoxicity”. Also, the CC50 at 48 h in data set [5] (setting [9]) is 18.9 ± 1.53 µM; in data set [5] (setting [10]), over 20 µM; in data set [8] (setting [11]) it was 30.3 ± 1.3 µM; in data set [8] (setting [12]) it was over 20 µM. For the same compound, the “inhibitory capacity for the PD-1/PD-L1 interaction (luciferase activity)” value in data set [6] was “potential inhibitory capacity”. Further, the PD-1 protein expression entry in data set [7] is given as “unchanged”.

With `COc1c(C(=O)Nc2ccc(C3=NCCN3)cc2)cccc1C(=O)Nc1ccc(C2=NCCN2)cc1` [CH-2], the “cytotoxicity to KG-1 cells” value in data set [1] is “low cytotoxicity”. For the same compound, the CC50 in data set [2] (setting [9]) is 151 ± 32.5 µM; in data set [2] (setting [10]), over 20 µM; in data set [3] (setting [11]) it was 94.9 ± 1.97 µM; in data set [3] (setting [12]), over 20 µM.

`C/C(=N\NC(=O)CCSCCC(=O)N/N=C(\C)c1ccccc1)c1ccccc1` [CH-6]: the “cytotoxicity to KG-1 cells” value in data set [1] is listed as “low cytotoxicity”. For the same compound, the CC50 in data set [2] (setting [9]) was 113 ± 26.1 µM; in data set [2] (setting [10]) it was over 20 µM; in data set [3] (setting [11]), 103.4 ± 0.94 µM; in data set [3] (setting [12]), over 20 µM.

On to `COc1cc(-c2ccc(NC(=O)CSC(N)=O)c(OC)c2)ccc1NC(=O)CSC(N)=O` [CH-3], for which the “cytotoxicity to KG-1 cells” value in data set [1] is on record as “low cytotoxicity”. In addition, the CC50 in data set [2] (setting [9]) is 78.1 ± 4.95 µM; in data set [2] (setting [10]), over 20 µM; in data set [3] (setting [11]), 212 ± 46.5 µM; in data set [3] (setting [12]) it was over 20 µM.

As for `O=C(Nc1ccccc1)c1cc2ccccc2oc1=O` [CH-4.9], in data set [2] (Fig. 3A), the “concentration associated with increasing cytotoxicity in HEK293 cells” value was “exceeding 20 µM”. In addition, the “inhibitory capacity for the PD-1/PD-L1 interaction (luciferase activity)” value in data set [6] is recorded as “failed to inhibit”. The “cytotoxicity in Jurkat cells” value in data set [3] (up to 100 µM, Fig. 3A) is recorded as “neither analog showed any evidence of cytotoxicity”.

Regarding `O=c1c(/C=C/c2c(O)ccc3ccccc23)nnc2sc(-c3cccc([N+](=O)[O-])c3)nn12` [CH-5], the “cytotoxicity to KG-1 cells” value in data set [1] was “sensitized”. The CC50 in data set [2] (setting [9]) was found to be 8.52 ± 1.74 µM; in data set [3] (setting [11]) it was 10.6 ± 2.67 µM.

Values taken from PMC8741796, “In vitro characterization of a small molecule PD-1 inhibitor that targets the PD-l/PD-L1 interaction” (Scientific Reports, 2022).
